This note sets out measurements from patent publication US20230017045A1, “PYRIDINE AND PYRIMIDINE CARBOXYLATE HERBICIDES AND METHODS OF USE THEREOF” (Dow AgroSciences LLC, priority 2017, published 2023).

Each structure is given as a SMILES string. Like-named read-outs stand apart in the source and are kept apart here.

In the test the test system is test plant species. The experiment in a line: Post-emergent herbicidal activity test (greenhouse, foliar spray, visual growth reduction). The following applies: post-emergence, 336 h, 140 g ai/ha, 14 days after application. The format is in vivo. The method, then:
Post-emergent Test: Seeds or nutlets of the desired test plant species were planted in Sun Gro Metro-Mix® 360 planting mixture, which typically has a pH of 6.0 to 6.8 and an organic matter content of about 30 percent, in plastic pots with a surface area of 64 square centimeters. In some aspects, to ensure good germination and healthy plants, a fungicide treatment and/or other chemical or physical treatment was applied. The plants were grown for 7-21 d in a greenhouse with an approximate 15 h photoperiod which was maintained at 23-29° C. during the day and 22-28° C. during the night. Nutrients and water were added on a regular basis and supplemental lighting was provided with overhead metal halide 1000-Watt lamps as necessary. Plants were used for testing when they reached the first or second true leaf stage. A weighed amount, determined by the highest rate to be tested, of each test compound was placed in a 25 mL glass vial and was dissolved in 4 mL of a 97:3 v/v mixture of acetone and DMSO to obtain concentrated stock solutions. […] The concentrated stock solutions obtained were diluted with 20 mL of an aqueous mixture containing acetone, water, isopropyl alcohol, DMSO, […] crop oil concentrate, and X-77 surfactant in a 48.5:39:10:1.5:1.0:0.02 v/v ratio to obtain spray solutions containing the application rate. Compound requirements are based upon a 12 mL application volume at a rate of 187 liters per hectare (L/ha). Formulated compounds were applied to the plant material with an overhead Mandel track sprayer equipped with […] nozzles calibrated to deliver 187 L/ha over an application area of 0.64 square meters at a spray height of 18 inches (43 cm) above the average plant canopy height. Control plants were sprayed in the same manner with the solvent blank. The treated plants and control plants were placed in a greenhouse as described above and watered by subirrigation to prevent wash-off of the test compounds. After 14 d, the condition of the test plants as compared with that of the nontreated and control plants was determined visually and scored on a scale of 0 to 100 percent where 0 corresponds to no injury and 100 corresponds to complete control. In the reporting of the results, Table A: Percent Growth Reduction Conversion Table was used.

The mark [1] stands for this setting: ALOMY: blackgrass (Alopecurus myosuroides), read-out: Visual Growth Reduction (%) 14 Days After Application, ALOMY.
[2] abbreviates: AMARE: redroot pigweed (Amaranthus retroflexus), read-out: Visual Growth Reduction (%) 14 Days After Application, AMARE.
[3] abbreviates: AVEFA: wild oat (Avena fatua), read-out: Visual Growth Reduction (%) 14 Days After Application, AVEFA.
[4] abbreviates: CHEAL: lambsquarters (Chenopodium album), read-out: Visual Growth Reduction (%) 14 Days After Application, CHEAL.
The mark [5] stands for this setting: CIRAR: canada thistle (Cirsium arvense), read-out: Visual Growth Reduction (%) 14 Days After Application, CIRAR.
Setting [6] is: CYPES: yellow nutsedge (Cyperus esculentus), read-out: Visual Growth Reduction (%) 14 Days After Application, CYPES.
Setting [7] is: DIGSA: crabgrass (Digitaria sanguinalis), read-out: Visual Growth Reduction (%) 14 Days After Application, DIGSA.
The mark [8] stands for this setting: ECHCG: barnyardgrass (Echinochloa crus-galli), read-out: Visual Growth Reduction (%) 14 Days After Application, ECHCG.
Setting [9] is: IPOHE: ivy-leaf morning glory (Ipomoea hederacea), read-out: Visual Growth Reduction (%) 14 Days After Application, IPOHE.
Where [10] appears, read: KCHSC: kochia (Bassia scoparia), read-out: Visual Growth Reduction (%) 14 Days After Application, KCHSC.
[11] abbreviates: ORYSA: rice (Oryza sativa), read-out: Visual Growth Reduction (%) 14 Days After Application, ORYSA.
Setting [12] is: SETFA: giant foxtail (Setaria faberi), read-out: Visual Growth Reduction (%) 14 Days After Application, SETFA.
[13] abbreviates: SORVU: grain sorghum (Sorghum vulgare), read-out: Visual Growth Reduction (%) 14 Days After Application, SORVU.
The mark [14] stands for this setting: STEME: common chickweed (Stellaria media), read-out: Visual Growth Reduction (%) 14 Days After Application, STEME.
Setting [15] is: TRZAS: wheat, spring (Triticum aestivum), read-out: Visual Growth Reduction (%) 14 Days After Application, TRZAS.

With `O=C(O)c1nc(-c2ccc(C(F)(F)F)cc2Cl)ccc1Cl` [F61, 3-chloro-6-(2-chloro-4-(trifluoromethyl)phenyl)picolinic acid], the pest or weed control at 140 g/ha was in the range of 60 to 74% under setting [1]; 95 to 100% under setting [2]; 60 to 74% under setting [3]; 95 to 100% under setting [4]; 85 to 94% under setting [5]; 0 to 29% under setting [6]. Further, the pest or weed control at 140 g/ha fell in the range of 95 to 100% under setting [7]; 85 to 94% under setting [8]; 95 to 100% under setting [9]; 85 to 94% under setting [10]; 45 to 59% under setting [11]; 85 to 94% under setting [12]. For the same compound, the pest or weed control at 140 g/ha fell in the range of 85 to 94% under setting [13], 0 to 29% under setting [14] and 85 to 94% under setting [15].

In the case of `COC(=O)c1nc(-c2c(F)cc(Cl)cc2Cl)ccc1Cl` [F62, Methyl 3-chloro-6-(2,4-dichloro-6-fluorophenyl) picolinate], the pest or weed control at 140 g/ha runs as follows: under setting [1], 0 to 29%; under setting [2], 95 to 100%; under setting [3], 0 to 29%; under setting [4], 75 to 84%; under setting [5], 75 to 84%; under setting [6], 0 to 29%. Besides, the pest or weed control at 140 g/ha lay in the range of 75 to 84% under setting [7]; 95 to 100% under setting [9]; 60 to 74% under setting [10]; 0 to 29% under setting [11]; 75 to 84% under setting [12]; 85 to 94% under setting [13]. Further, the pest or weed control at 140 g/ha under setting [14] was 0 to 29%.

For `COC(=O)c1nc(-c2ccc(Cl)c(F)c2Cl)ccc1Cl` [F63, Methyl 3-chloro-6-(2,4-dichloro-3-fluorophenyl) picolinate], the pest or weed control at 140 g/ha is, setting by setting: under setting [1], 0 to 29%; under setting [2], 95 to 100%; under setting [3], 0 to 29%; under setting [4], 95 to 100%; under setting [5], 85 to 94%; under setting [6], 0 to 29%. For the same compound, the pest or weed control at 140 g/ha was in the range of 85 to 94% under setting [7]; 95 to 100% under setting [9]; 60 to 74% under setting [10]; 0 to 29% under setting [11]; 75 to 84% under setting [12]; 85 to 94% under setting [13]. In addition, under setting [14], the pest or weed control at 140 g/ha fell in the range of 0 to 29%.

As to `COC(=O)c1nc(-c2ccc3c(c2)OC(F)(F)O3)ccc1Cl` [F64, Methyl 3-chloro-6-(2,2-difluorobenzo[d] [1,3]dioxol-5-yl) picolinate], the pest or weed control at 140 g/ha by setting is: under setting [1], 0 to 29%; under setting [2], 45 to 59%; under setting [3], 0 to 29%; under setting [4], 60 to 74%; under setting [5], 0 to 29%; under setting [6], 60 to 74%. The pest or weed control at 140 g/ha runs as follows: under setting [7], 85 to 94%; under setting [8], 0 to 29%; under setting [9], 95 to 100%; under setting [10], 0 to 29%; under setting [11], 0 to 29%; under setting [12], 0 to 29%. For the same compound, the pest or weed control at 140 g/ha by setting is: under setting [13], 60 to 74%; under setting [14], 0 to 29%; under setting [15], 0 to 29%.

Turning to `COC(=O)c1nc(-c2cc(F)c(Cl)cc2Cl)ccc1Cl` [F65, Methyl 3-chloro-6-(2,4-dichloro-5-fluorophenyl) picolinate], the pest or weed control at 140 g/ha was in the range of 0 to 29% under setting [1]; 95 to 100% under setting [2]; 0 to 29% under setting [3]; 60 to 74% under setting [4]; 85 to 94% under setting [5]; 0 to 29% under setting [6]. The pest or weed control at 140 g/ha under setting [7] fell in the range of 95 to 100%; the pest or weed control at 140 g/ha under setting [8] was 60 to 74%; the pest or weed control at 140 g/ha under setting [9] fell in the range of 95 to 100%; the pest or weed control at 140 g/ha under setting [10] fell in the range of 0 to 29%; the pest or weed control at 140 g/ha under setting [11] lay in the range of 30 to 44%; the pest or weed control at 140 g/ha under setting [12] was in the range of 85 to 94%. For the same compound, the pest or weed control at 140 g/ha runs as follows: under setting [13], 60 to 74%; under setting [14], 0 to 29%.

Consider `COC(=O)c1nc(-c2ccc(C(F)(F)F)cc2Cl)ccc1Cl` [F66, methyl 3-chloro-6-(2-chloro-4-(trifluoromethyl)phenyl)picolinate], for which the pest or weed control at 140 g/ha runs as follows: under setting [1], 45 to 59%; under setting [2], 95 to 100%; under setting [3], 60 to 74%; under setting [4], 85 to 94%; under setting [5], 95 to 100%; under setting [6], 0 to 29%. For the same compound, the pest or weed control at 140 g/ha is, setting by setting: under setting [7], 95 to 100%; under setting [8], 95 to 100%; under setting [9], 95 to 100%; under setting [10], 60 to 74%; under setting [11], 45 to 59%; under setting [12], 95 to 100%. The pest or weed control at 140 g/ha lay within 85 to 94% under setting [13] and 0 to 29% under setting [14].

In the case of `O=C(O)c1nc(-c2ccc(Cl)c3c2OC(F)(F)O3)ccc1Cl` [F67, 3-Chloro-6-(7-chloro-2,2-difluorobenzo[d] [1,3]dioxol-4-yl) picolinic acid], the pest or weed control at 140 g/ha runs as follows: under setting [1], 0 to 29%; under setting [2], 45 to 59%; under setting [3], 0 to 29%; under setting [4], 0 to 29%; under setting [5], 0 to 29%; under setting [6], 0 to 29%. Moreover, the pest or weed control at 140 g/ha was in the range of 0 to 29% under setting [7]; 0 to 29% under setting [8]; 0 to 29% under setting [9]; 0 to 29% under setting [10]; 0 to 29% under setting [11]; 0 to 29% under setting [12]. The pest or weed control at 140 g/ha under setting [13] was in the range of 0 to 29%.

Regarding `COC(=O)c1nc(-c2ccc(Cl)c3c2OC(F)(F)O3)ccc1Cl` [F68, Methyl 3-chloro-6-(7-chloro-2,2-difluorobenzo[d] [1,3]dioxol-4-yl)picolinate], the pest or weed control at 140 g/ha by setting is: under setting [1], 0 to 29%; under setting [2], 0 to 29%; under setting [3], 0 to 29%; under setting [4], 0 to 29%; under setting [5], 0 to 29%; under setting [7], 0 to 29%. Besides, the pest or weed control at 140 g/ha is, setting by setting: under setting [8], 0 to 29%; under setting [9], 0 to 29%; under setting [10], 0 to 29%; under setting [11], 0 to 29%; under setting [12], 0 to 29%; under setting [13], 0 to 29%. Further, under setting [14], the pest or weed control at 140 g/ha fell in the range of 0 to 29%.
